From patent publication US5380834A, “Immuno-suppressive agent” (Ishihara Sangyo Kaisha Ltd., priority 1992, dated 1995)
Values after ≈ are worked out from the molar mass of the structure shown.

Assays:
murine thymocytes = assay: Effects on the mitogenic response by murine thymocytes (Con A stimulation, 3H-TdR uptake); assay type: cell-based, BALB/c murine; details: Mus musculus, Thymocyte; BALB/c thymocytes, Con A 5 μg/ml, 48 hours, 3H-TdR uptake; read-out: IC50 value, a (mitogenic response of murine thymocytes)
murine bone mallow cells = assay: Effects on the murine bone mallow cells (proliferation, 3H-TdR uptake); assay type: cell-based, BALB/c mouse; details: Mus musculus, bone marrow cells; 20% L929 culture supernatant, 48 hours, 3H-TdR uptake; Tables 12-15; read-out: IC50 value, c (murine bone mallow cells)
[1] = system: Carrageenan-induced acute inflammation in rats; assay: Carrageenan-induced paw edema model (anti-inflammatory activity); assay type: in vivo, SD male rat; details: 50 mg/Kg orally one hour before carrageenan, 3 hours, n=4; control 144 ± 8; P < 0.01 (No. 29), P < 0.05 (Nos. 1, 17)
Method: A test for an anti-inflammatory activity was conducted by means of carrageenan-induced paw edema model which is commonly used for evaluation of the effectiveness of a common anti-inflammatory agent (NSAID).
0.1 ml of a 1% λ-carrageenan solution was injected intradermally at the sole of the right paw of a SD male rat (six weeks old). Three hours later, the sole volumes of paws on both sides were measured, and the difference in the volume between the right paw and the left paw was taken as the degree of edema. The test compound was orally administered in an amount of 1 ml/100 g (body weight) one hour prior to the administration of carrageenan. To the control group, a physiological saline was administered in the same amount.

Compound	IC50 (murine thymocytes)	IC50 (murine bone mallow cells)	Swelling of paw, Average ± SD [1]
O[C@H]1C=C[C@H]2CO[C@@H]1O2 [Compound 1, 1,6-anhydro-3,4-dideoxy-β-D-threo-hex-3-enopyranose]	15 µg/mL (≈ 117 µM)	69 µg/mL (≈ 539 µM)	100 ± 33 × 10^-2 cm^3
O=C(O[C@H]1C=C[C@H]2CO[C@@H]1O2)c1ccco1 [Compound 17, 1,6-anhydro-3,4-dideoxy-2-O-(2-furancarbonyl)-β-D-threo-hex-3-enopyranose]	190 µg/mL (≈ 855 µM)	510 µg/mL (≈ 2300 µM)	95 ± 26 × 10^-2 cm^3
C#C[C@]1(O)C=C[C@H]2CO[C@@H]1O2 [Compound 29]	35 µg/mL (≈ 230 µM)	> 1000 µg/mL	97 ± 22 × 10^-2 cm^3
